This note sets out measurements from patent publication US20220009931A1, “NOVEL UREA 6,7-DIHYDRO-4H-PYRAZOLO[1,5-A]PYRAZINES ACTIVE AGAINST THE HEPATITIS B VIRUS (HBV)” (AICURIS GMBH & CO. KG, priority 2018, published 2022).

Molecules are shown by their SMILES. pEC50: −log10 of the molar value. Bounds are passed on as bounds.

For the assay, the system named is HBV. Particulars: Hepatitis B virus, HePAD38, 144 h, read-out: Cell Activity.
Consider `O=C(Nc1ccc(F)c(Cl)c1)N1CCn2nc(NC3CCOC3)cc2C1` (stereo not shown) [Example 1, N-(3-chloro-4-fluorophenyl)-2-[(oxolan-3-yl)amino]-4H,5H,6H,7H-pyrazolo[1,5-a]pyrazine-5-carboxamide], for which the pEC50 is 5.00 to 6.00.

As for `O=C(Nc1ccc(F)c(Cl)c1)N1CCn2nc(NC3CCC(O)CC3)cc2C1` (stereo not shown) [Example 2, N-(3-chloro-4-fluorophenyl)-2-[(4-hydroxycyclohexyl)amino]-4H,5H,6H,7H-pyrazolo[1,5-a]pyrazine-5-carboxamide], the pEC50 is more than 6.00.

In the case of `CC1Cn2nc(NC(=O)C3CCOC3)cc2CN1C(=O)Nc1ccc(F)c(Cl)c1` (stereo not shown) [Example 3, N-(3-chloro-4-fluorophenyl)-6-methyl-2-(oxolane-3-amido)-4H,5H,6H,7H-pyrazolo[1,5-a]pyrazine-5-carboxamide], the pEC50 was more than 6.00.

Take `CC1Cn2nc(NCC3CCOC3)cc2CN1C(=O)Nc1ccc(F)c(Cl)c1` (stereo not shown) [Example 4]: the pEC50 is 5.00 to 6.00.

In the case of `CC(=O)Nc1cc2n(n1)CCN(C(=O)Nc1ccc(F)c(Cl)c1)C2` [Example 5, N-(3-chloro-4-fluorophenyl)-2-acetamido-4H,5H,6H,7H-pyrazolo[1,5-a]pyrazine-5-carboxamide], the pEC50 is more than 6.00.

In the case of `O=C(Nc1ccc(F)c(Cl)c1)N1CCn2nc(NCC3CCOCC3)cc2C1` [Example 6, N-(3-chloro-4-fluorophenyl)-2-{[(oxan-4-yl)methyl]amino}-4H,5H,6H,7H-pyrazolo[1,5-a]pyrazine-5-carboxamide], the pEC50 is 5.00 to 6.00.

Take `CC1Cn2nc(N)cc2CN1C(=O)Nc1ccc(F)c(Cl)c1` (stereo not shown) [Example 7, 2-amino-N-(3-chloro-4-fluorophenyl)-6-methyl-4H,5H,6H,7H-pyrazolo[1,5-a]pyrazine-5-carboxamide]: the pEC50 is 5.00 to 6.00.

As to `O=C(Nc1cc2n(n1)CCN(C(=O)Nc1ccc(F)c(Cl)c1)C2)C1CCOCC1` [Example 8, N-(3-chloro-4-fluorophenyl)-2-(oxane-4-amido)-4H,5H,6H,7H-pyrazolo[1,5-a]pyrazine-5-carboxamide], the pEC50 was more than 6.00.

Regarding `O=C(Nc1cc2n(n1)CCN(C(=O)Nc1ccc(F)c(Cl)c1)C2)C1CCOC1` (stereo not shown) [Example 9, N-(3-chloro-4-fluorophenyl)-2-(oxolane-3-amido)-4H,5H,6H,7H-pyrazolo[1,5-a]pyrazine-5-carboxamide], the pEC50 is more than 6.00.

With `O=C(Nc1ccc(F)c(Cl)c1)N1CCn2nc(NCC3CCOC3)cc2C1` (stereo not shown) [Example 10, N-(3-chloro-4-fluorophenyl)-2-{[(oxolan-3-yl)methyl]amino}-4H,5H,6H,7H-pyrazolo[1,5-a]pyrazine-5-carboxamide], the pEC50 is 5.00 to 6.00.

Regarding `COCC1(S(=O)(=O)Nc2cc3n(n2)CCN(C(=O)Nc2ccc(F)c(Cl)c2)C3)CC1` [Example 11, N-(3-chloro-4-fluorophenyl)-2-[1-(methoxymethyl)cyclopropanesulfonamido]-4H,5H,6H,7H-pyrazolo[1,5-a]pyrazine-5-carboxamide], the pEC50 was more than 6.00.

Consider `O=C(Nc1ccc(F)c(Cl)c1)N1CCn2nc(NS(=O)(=O)C3CC3)cc2C1` [Example 12, N-(3-chloro-4-fluorophenyl)-2-cyclopropanesulfonamido-4H,5H,6H,7H-pyrazolo[1,5-a]pyrazine-5-carboxamide], for which the pEC50 was more than 6.00.

Take `O=C(Nc1ccc(F)c(Cl)c1)N1CCn2nc(NS(=O)(=O)C3(CO)CC3)cc2C1` [Example 13, N-(3-chloro-4-fluorophenyl)-2-[1-(hydroxymethyl)cyclopropanesulfonamido]-4H,5H,6H,7H-pyrazolo[1,5-a]pyrazine-5-carboxamide]: the pEC50 was more than 6.00.

`O=C(Nc1ccc(F)cc1)N1CCn2nc(NS(=O)(=O)C3(CO)CC3)cc2C1` [Example 14, N-(4-fluorophenyl)-2-[1-(hydroxymethyl)cyclopropanesulfonamido]-4H,5H,6H,7H-pyrazolo[1,5-a]pyrazine-5-carboxamide]: the pEC50 was more than 4.00.

Regarding `COCC1(CNc2cc3n(n2)CCN(C(=O)Nc2ccc(F)c(Cl)c2)C3)CC1` [Example 15, N-(3-chloro-4-fluorophenyl)-2-({[1-(methoxymethyl)cyclopropyl]methyl}amino)-4H,5H,6H,7H-pyrazolo[1,5-a]pyrazine-5-carboxamide], the pEC50 is more than 6.00.

Consider `O=C(Nc1ccc(F)c(Cl)c1)N1CCn2nc(NCC3CCCOC3)cc2C1` (stereo not shown) [Example 16, N-(3-chloro-4-fluorophenyl)-2-{[(oxan-3-yl)methyl]amino}-4H,5H,6H,7H-pyrazolo[1,5-a]pyrazine-5-carboxamide], for which the pEC50 was 5.00 to 6.00.

Turning to `CC(C)(CO)CNc1cc2n(n1)CCN(C(=O)Nc1ccc(F)c(Cl)c1)C2` [Example 17, N-(3-chloro-4-fluorophenyl)-2-[(3-hydroxy-2,2-dimethylpropyl)amino]-4H,5H,6H,7H-pyrazolo[1,5-a]pyrazine-5-carboxamide], the pEC50 was more than 6.00.

Turning to `COC1(CNc2cc3n(n2)CCN(C(=O)Nc2ccc(F)c(Cl)c2)C3)CCC1` [Example 18, N-(3-chloro-4-fluorophenyl)-2-{[(1-methoxycyclobutyl)methyl]amino}-4H,5H,6H,7H-pyrazolo[1,5-a]pyrazine-5-carboxamide], the pEC50 is more than 6.00.

For `COC1CCC(Nc2cc3n(n2)CCN(C(=O)Nc2ccc(F)c(Cl)c2)C3)CC1` (stereo not shown) [Example 19, N-(3-chloro-4-fluorophenyl)-2-[(4-methoxycyclohexyl)amino]-4H,5H,6H,7H-pyrazolo[1,5-a]pyrazine-5-carboxamide], the pEC50 is more than 6.00.

Consider `CC1(CNc2cc3n(n2)CCN(C(=O)Nc2ccc(F)c(Cl)c2)C3)CCOC1` (stereo not shown) [Example 20, N-(3-chloro-4-fluorophenyl)-2-{[(3-methyloxolan-3-yl)methyl]amino}-4H,5H,6H,7H-pyrazolo[1,5-a]pyrazine-5-carboxamide], for which the pEC50 is more than 6.00.

For the molecule `O=C(Nc1ccc(F)c(Cl)c1)N1CCn2nc(NCC3(CO)CCC3)cc2C1` [Example 21, N-(3-chloro-4-fluorophenyl)-2-({[1-(hydroxymethyl)cyclobutyl]methyl}amino)-4H,5H,6H,7H-pyrazolo[1,5-a]pyrazine-5-carboxamide], the pEC50 was more than 6.00.

For the molecule `CCC(C)(CO)CNc1cc2n(n1)CCN(C(=O)Nc1ccc(F)c(Cl)c1)C2` (stereo not shown) [Example 22, N-(3-chloro-4-fluorophenyl)-2-[(2-ethyl-3-hydroxy-2-methylpropyl)amino]-4H,5H,6H,7H-pyrazolo[1,5-a]pyrazine-5-carboxamide], the pEC50 was more than 6.00.

As for `CC(CO)CNc1cc2n(n1)CCN(C(=O)Nc1ccc(F)c(Cl)c1)C2` (stereo not shown) [Example 23, N-(3-chloro-4-fluorophenyl)-2-[(3-hydroxy-2-methylpropyl)amino]-4H,5H,6H,7H-pyrazolo[1,5-a]pyrazine-5-carboxamide], the pEC50 is 5.00 to 6.00.

Consider `CC(C)OC1(CNc2cc3n(n2)CCN(C(=O)Nc2ccc(F)c(Cl)c2)C3)CCC1` [Example 24, N-(3-chloro-4-fluorophenyl)-2-({[1-(propan-2-yloxy)cyclobutyl]methyl}amino)-4H,5H,6H,7H-pyrazolo[1,5-a]pyrazine-5-carboxamide], for which the pEC50 was 5.00 to 6.00.

Consider `COC1(CNc2cc3n(n2)CCN(C(=O)Nc2ccc(F)c(Cl)c2)C3)CCOC1` (stereo not shown) [Example 25, N-(3-chloro-4-fluorophenyl)-2-{[(3-methoxyoxolan-3-yl)methyl]amino}-4H,5H,6H,7H-pyrazolo[1,5-a]pyrazine-5-carboxamide], for which the pEC50 was 5.00 to 6.00.

In the case of `CC(Nc1cc2n(n1)CCN(C(=O)Nc1ccc(F)c(Cl)c1)C2)C1CCOC1` (stereo not shown) [Example 26, N-(3-chloro-4-fluorophenyl)-2-{[1-(oxolan-3-yl)ethyl]amino}-4H,5H,6H,7H-pyrazolo[1,5-a]pyrazine-5-carboxamide], the pEC50 is 5.00 to 6.00.

In the case of `O=C(Nc1ccc(F)c(Cl)c1)N1CCn2nc(NC3(c4ccccc4)CC3)cc2C1` [Example 27, N-(3-chloro-4-fluorophenyl)-2-[(1-phenylcyclopropyl)amino]-4H,5H,6H,7H-pyrazolo[1,5-a]pyrazine-5-carboxamide], the pEC50 is more than 6.00.

For the molecule `O=C(Nc1cc2n(n1)CCN(C(=O)Nc1ccc(F)c(Cl)c1)C2)C1CCN(c2ccncc2)CC1` [Example 28, N-{5-[(3-chloro-4-fluorophenyl)carbamoyl]-4H,5H,6H,7H-pyrazolo[1,5-a]pyrazin-2-yl}-1-(pyridin-4-yl)piperidine-4-carboxamide], the pEC50 was more than 6.00.

In the case of `O=C(Nc1cc2n(n1)CCN(C(=O)Nc1ccc(F)c(Cl)c1)C2)C1CCNC(C(F)(F)F)C1` (stereo not shown) [Example 29, N-{5-[(3-chloro-4-fluorophenyl)carbamoyl]-4H,5H,6H,7H-pyrazolo[1,5-a]pyrazin-2-yl}-2-(trifluoromethyl)piperidine-4-carboxamide], the pEC50 is more than 6.00.

`COC(=O)N1CCC(C(=O)Nc2cc3n(n2)CCN(C(=O)Nc2ccc(F)c(Cl)c2)C3)CC1` [Example 30, methyl 4-({5-[(3-chloro-4-fluorophenyl)carbamoyl]-4H,5H,6H,7H-pyrazolo[1,5-a]pyrazin-2-yl}carbamoyl)piperidine-1-carboxylate]: the pEC50 was more than 6.00.

In the case of `O=C(Nc1cc2n(n1)CCN(C(=O)Nc1ccc(F)c(Cl)c1)C2)C1CCN(C2CC2)CC1` [Example 31, N-{5-[(3-chloro-4-fluorophenyl)carbamoyl]-4H,5H,6H,7H-pyrazolo[1,5-a]pyrazin-2-yl}-1-cyclopropylpiperidine-4-carboxamide], the pEC50 is more than 6.00.

Regarding `O=C(Nc1ccc(F)c(Cl)c1)N1CCn2nc(NC3(CO)CCC3)cc2C1` [Example 32, N-(3-chloro-4-fluorophenyl)-2-{[1-(hydroxymethyl)cyclobutyl]amino}-4H,5H,6H,7H-pyrazolo[1,5-a]pyrazine-5-carboxamide], the pEC50 was more than 6.00.

In the case of `O=C(Nc1ccc(F)c(Cl)c1)N1CCn2nc(NCC3(O)CCC3)cc2C1` [Example 33, N-(3-chloro-4-fluorophenyl)-2-{[(1-hydroxycyclobutyl)methyl]amino}-4H,5H,6H,7H-pyrazolo[1,5-a]pyrazine-5-carboxamide], the pEC50 is more than 6.00.

`O=C(Nc1ccc(F)c(Cl)c1)N1CCn2nc(N[C@@H]3CCC[C@H](O)C3)cc2C1` [Example 34, N-(3-chloro-4-fluorophenyl)-2-{[(1R,3S)-3-hydroxycyclohexyl]amino}-4H,5H,6H,7H-pyrazolo[1,5-a]pyrazine-5-carboxamide]: the pEC50 was 5.00 to 6.00.
